Results: patent publication US20090218708A1, “Process for preparing concentrated aqueous micellar solutions” (Roche Palo Alto LLC, priority 2008, published 2009)

Experiments:
Assay type in all cases: physicochemical
[1] = Stability study of micellar solid from spray drying of I (HPLC area %)
Experimental: (§1) A small amount of the solid (about 10 mg from example 1) was weighed into a weighing bottle and placed in a chamber with controlled relative humidity for 4 weeks and the percentage of water absorbed was calculated form the weight gain. The sample was also assayed by HPLC against an external standard on a Waters 2690 HPLC at 276 nm. The data was processed using Waters Millennium software version 3.2. The thermal stability also was determined at 60° C. and at 40° C./75% relative humidity. The purity of the sample was determined by assaying weighed aliquots by HPLC against an external standard.

[2] = Hygroscopicity: water absorbed in controlled relative humidity chamber (weight gain); settings: 4 weeks
Experimental: as §1

[3] = Solubility of compound II in solvents
Experimental: Compound II (2 g) was slowly dispersed in 70% IPA (20 mL) and water (14 mL) was added. […] The IPA was distilled using rotary evaporator to achieve an aqueous solution containing ca. […] of II. The concentrated aqueous solution was spray dried using a Buchi B-290 spray drier and the operating parameters were adjusted as follows: […]

## O=C(O)CCc1cc(C(=O)c2ccc(OC3CCCC3)cc2O)ccc1OCc1ccc2c(O)noc2c1 [I]
[1]; 25° C./60% RH (closed), 4 weeks
  Area %: 99.88%
[1]; 25° C./60% RH (closed), To
  Area %: 99.88%
[1]; 40° C./75% RH (closed), 4 weeks
  Area %: 99.91%
[1]; 40° C./75% RH (closed), To
  Area %: 99.88%
[1]; 40° C./75% RH (open), 5 weeks
  Area %: 99.26%
[1]; 40° C./75% RH (open), To
  Area %: 99.81%
[1]; 60° C. (closed), 5 weeks
  Area %: 99.72%
[1]; 60° C. (closed), To
  Area %: 99.81%
[1]; at 40 and 60° C. over the duration of the assay
  thermal stability: thermally stable
[2]
  hygroscopicity: not hygroscopic

## CCC(=O)[N-]S(=O)(=O)c1ccc(NC(=O)Cc2ccc(Br)c(Oc3cc(Cl)cc(C#N)c3)c2F)c(Cl)c1.[Na+] [II]
[3]; aqueous with cosolvent or surfactant or cyclodextrin, in 70% IPA/H2O
  solubility: ~47000 µg/mL
[3]; in water
  solubility: ~4000 µg/mL
[3]; organic solvent or mixture, in IPA
  solubility: ~80 µg/mL
